The results in this text go back to patent publication US9340590B2 (priority 2011, dated 2016).

Read-outs that look alike come from different tables or passages of the source. Positions of bridges follow the written chain, without caps; N, C: chain ends. Non-standard residues stand in square brackets, D forms with d. Residues, ends and D or L forms follow the SMILES beside them. Cit = NC(=O)NCCC[C@H](N)C(=O)O Some results are limits rather than exact numbers.

Holding throughout (assay): cell-based
One assay deals with hNav1.7 (Homo sapiens, UniProt Q15858). In kind it is cell-based. The note with it: IonWorks Quattro, read-out: IWQ Use Nav1.7. On the technique in general: The patch-clamp technique gives a direct electrical read-out from membranes.
For the next assay, the target named is hNav1.5 (Homo sapiens, UniProt Q14524).
For a further assay, the target named is hNav1.3 (Homo sapiens, UniProt Q9NY46). The note with it: IonWorks Quattro, read-out: IWQ Use Nav1.3.
Where [1] appears, read: IonWorks Quattro, use-dependent block, hNav1.5, read-out: IWQ Use Nav1.5.

hNav1.5, sequence (Q14524 whole entry, looked up): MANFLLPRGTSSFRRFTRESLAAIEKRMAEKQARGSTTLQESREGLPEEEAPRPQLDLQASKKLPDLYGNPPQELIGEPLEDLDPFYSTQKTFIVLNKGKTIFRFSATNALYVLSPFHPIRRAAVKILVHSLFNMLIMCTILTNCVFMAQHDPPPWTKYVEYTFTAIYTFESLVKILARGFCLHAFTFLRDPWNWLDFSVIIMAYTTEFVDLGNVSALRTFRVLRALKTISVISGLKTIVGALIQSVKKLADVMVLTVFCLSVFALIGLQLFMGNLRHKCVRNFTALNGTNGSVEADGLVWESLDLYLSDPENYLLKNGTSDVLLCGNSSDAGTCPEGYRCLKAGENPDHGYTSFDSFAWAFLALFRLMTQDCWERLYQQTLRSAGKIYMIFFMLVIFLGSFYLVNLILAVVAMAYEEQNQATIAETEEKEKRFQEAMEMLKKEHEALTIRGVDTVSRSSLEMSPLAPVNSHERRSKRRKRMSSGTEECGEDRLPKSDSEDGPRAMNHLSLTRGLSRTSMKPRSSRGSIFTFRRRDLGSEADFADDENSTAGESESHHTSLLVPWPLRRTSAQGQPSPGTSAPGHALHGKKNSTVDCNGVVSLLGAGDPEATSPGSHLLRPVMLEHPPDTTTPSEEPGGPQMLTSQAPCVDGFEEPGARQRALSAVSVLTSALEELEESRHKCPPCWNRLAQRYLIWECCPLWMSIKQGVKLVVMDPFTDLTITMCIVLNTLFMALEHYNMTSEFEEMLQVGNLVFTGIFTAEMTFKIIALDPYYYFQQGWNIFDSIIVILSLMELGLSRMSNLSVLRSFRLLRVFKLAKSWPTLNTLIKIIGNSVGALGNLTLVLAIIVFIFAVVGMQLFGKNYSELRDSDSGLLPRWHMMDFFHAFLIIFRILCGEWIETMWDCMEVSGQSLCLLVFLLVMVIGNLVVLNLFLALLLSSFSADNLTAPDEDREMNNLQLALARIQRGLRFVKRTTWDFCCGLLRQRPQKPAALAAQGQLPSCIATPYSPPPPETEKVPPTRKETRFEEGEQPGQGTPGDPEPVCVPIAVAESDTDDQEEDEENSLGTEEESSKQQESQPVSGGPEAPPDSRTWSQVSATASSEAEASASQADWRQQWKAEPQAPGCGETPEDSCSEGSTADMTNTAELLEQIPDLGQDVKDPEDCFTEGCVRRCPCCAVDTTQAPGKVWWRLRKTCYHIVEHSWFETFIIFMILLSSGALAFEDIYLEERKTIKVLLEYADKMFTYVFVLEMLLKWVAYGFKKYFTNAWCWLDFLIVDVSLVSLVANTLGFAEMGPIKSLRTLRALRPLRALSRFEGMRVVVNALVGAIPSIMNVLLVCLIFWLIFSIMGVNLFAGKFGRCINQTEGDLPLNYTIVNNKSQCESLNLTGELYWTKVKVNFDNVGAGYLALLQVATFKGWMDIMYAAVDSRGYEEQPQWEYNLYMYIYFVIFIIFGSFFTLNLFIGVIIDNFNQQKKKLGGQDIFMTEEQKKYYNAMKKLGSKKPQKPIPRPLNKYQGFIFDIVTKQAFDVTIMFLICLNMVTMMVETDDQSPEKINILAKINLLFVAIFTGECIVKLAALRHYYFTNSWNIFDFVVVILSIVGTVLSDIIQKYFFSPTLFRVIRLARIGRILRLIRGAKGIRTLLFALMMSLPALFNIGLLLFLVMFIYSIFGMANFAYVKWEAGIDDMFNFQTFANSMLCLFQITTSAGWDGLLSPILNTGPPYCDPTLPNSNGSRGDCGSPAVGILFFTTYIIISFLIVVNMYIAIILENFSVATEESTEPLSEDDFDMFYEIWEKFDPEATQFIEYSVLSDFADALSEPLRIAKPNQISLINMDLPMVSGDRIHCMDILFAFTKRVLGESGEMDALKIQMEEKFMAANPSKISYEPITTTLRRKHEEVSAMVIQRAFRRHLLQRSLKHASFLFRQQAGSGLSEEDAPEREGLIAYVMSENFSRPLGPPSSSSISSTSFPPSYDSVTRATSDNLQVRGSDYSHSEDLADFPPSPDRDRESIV
hNav1.7, sequence (Q15858 whole entry, looked up): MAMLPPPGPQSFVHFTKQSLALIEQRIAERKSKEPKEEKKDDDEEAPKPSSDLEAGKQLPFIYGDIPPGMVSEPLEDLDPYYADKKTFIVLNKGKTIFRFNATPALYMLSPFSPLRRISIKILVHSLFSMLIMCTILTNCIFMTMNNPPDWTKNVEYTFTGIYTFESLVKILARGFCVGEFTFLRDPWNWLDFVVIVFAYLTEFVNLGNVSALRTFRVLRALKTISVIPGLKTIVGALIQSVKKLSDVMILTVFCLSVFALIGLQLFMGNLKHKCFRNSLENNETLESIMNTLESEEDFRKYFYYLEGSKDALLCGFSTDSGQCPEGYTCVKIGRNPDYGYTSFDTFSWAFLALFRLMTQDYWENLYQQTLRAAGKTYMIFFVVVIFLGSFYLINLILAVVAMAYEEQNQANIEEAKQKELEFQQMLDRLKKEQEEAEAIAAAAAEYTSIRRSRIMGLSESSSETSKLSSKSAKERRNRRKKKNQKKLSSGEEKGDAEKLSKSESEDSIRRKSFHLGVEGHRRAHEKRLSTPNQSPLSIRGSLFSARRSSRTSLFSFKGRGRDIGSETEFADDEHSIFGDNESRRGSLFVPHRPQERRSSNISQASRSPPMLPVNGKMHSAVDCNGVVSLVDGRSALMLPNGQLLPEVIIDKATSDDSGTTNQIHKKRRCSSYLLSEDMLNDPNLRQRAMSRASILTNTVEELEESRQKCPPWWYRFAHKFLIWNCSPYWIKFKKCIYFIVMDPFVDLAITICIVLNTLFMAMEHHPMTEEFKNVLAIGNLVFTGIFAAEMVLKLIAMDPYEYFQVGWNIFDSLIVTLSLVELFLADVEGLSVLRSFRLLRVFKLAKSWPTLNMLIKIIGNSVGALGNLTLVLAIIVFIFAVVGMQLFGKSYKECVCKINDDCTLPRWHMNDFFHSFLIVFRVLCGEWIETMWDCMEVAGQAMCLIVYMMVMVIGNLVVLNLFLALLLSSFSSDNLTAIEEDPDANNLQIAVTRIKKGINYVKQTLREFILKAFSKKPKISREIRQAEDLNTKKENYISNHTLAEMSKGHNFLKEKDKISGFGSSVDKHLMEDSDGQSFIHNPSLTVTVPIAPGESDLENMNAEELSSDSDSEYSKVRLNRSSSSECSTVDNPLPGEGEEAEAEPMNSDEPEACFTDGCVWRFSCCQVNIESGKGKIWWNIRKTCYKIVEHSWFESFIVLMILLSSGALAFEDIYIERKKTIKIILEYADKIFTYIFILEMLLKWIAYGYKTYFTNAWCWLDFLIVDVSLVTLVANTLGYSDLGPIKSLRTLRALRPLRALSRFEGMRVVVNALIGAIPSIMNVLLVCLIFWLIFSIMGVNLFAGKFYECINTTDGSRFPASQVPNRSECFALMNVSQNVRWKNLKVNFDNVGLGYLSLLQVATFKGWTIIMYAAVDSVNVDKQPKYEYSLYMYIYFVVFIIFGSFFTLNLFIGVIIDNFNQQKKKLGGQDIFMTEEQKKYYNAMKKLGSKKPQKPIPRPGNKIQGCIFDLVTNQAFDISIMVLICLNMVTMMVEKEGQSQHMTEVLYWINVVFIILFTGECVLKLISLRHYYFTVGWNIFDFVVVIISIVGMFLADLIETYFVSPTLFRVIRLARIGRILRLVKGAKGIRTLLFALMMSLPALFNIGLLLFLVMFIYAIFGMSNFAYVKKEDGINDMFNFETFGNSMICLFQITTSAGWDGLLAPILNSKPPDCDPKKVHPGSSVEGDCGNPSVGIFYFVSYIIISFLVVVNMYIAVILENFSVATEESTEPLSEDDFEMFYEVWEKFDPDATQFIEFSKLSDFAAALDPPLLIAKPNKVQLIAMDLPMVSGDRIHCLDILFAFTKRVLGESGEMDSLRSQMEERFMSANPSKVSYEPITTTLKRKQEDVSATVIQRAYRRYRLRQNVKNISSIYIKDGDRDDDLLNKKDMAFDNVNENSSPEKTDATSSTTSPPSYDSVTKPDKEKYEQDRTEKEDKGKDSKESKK

Regarding `CC[C@H](C)[C@@H]1NC(=O)[C@@H]2CSSC[C@@H]3NC(=O)[C@H](C(C)C)NC(=O)[C@H](CC(C)C)NC(=O)[C@H](CC(N)=O)NC(=O)[C@@H]4CCCN4C(=O)[C@H](CCCNC(=N)N)NC(=O)[C@H](CSSC[C@H](NC(=O)[C@@H](N)CC(=O)O)C(=O)N[C@@H](CC(C)C)C(=O)NCC(=O)N[C@@H](Cc4ccccc4)C(=O)N[C@@H](CCSC)C(=O)N[C@@H](CCCNC(=N)N)C(=O)N[C@@H](CCCCN)C(=O)N2)NC(=O)[C@H](CSSC[C@@H](C(=O)N[C@@H](CCCCN)C(=O)N[C@@H](Cc2ccc(O)cc2)C(=O)N[C@H](C(=O)N[C@@H](Cc2ccccc2)C(N)=O)C(C)C)NC(=O)[C@H](Cc2c[nH]c4ccccc24)NC(=O)[C@H](CCCCN)NC(=O)[C@H](Cc2c[nH]cn2)NC(=O)[C@H]([C@@H](C)O)NC(=O)[C@H](CCCNC(=N)N)NC(=O)[C@H](CO)NC3=O)NC(=O)[C@H](CCCCN)NC(=O)[C@H](CC(=O)O)NC(=O)[C@H](CC(N)=O)NC(=O)[C@H]([C@@H](C)O)NC(=O)[C@@H]2CCCN2C1=O` [compound 196] (H-DCLGFMRKCIPTNDKCCRPNLVCSRTHKWCKYVF-NH2; disulfide 2-17, 9-23, 16-30), the IC50 came out at 97 nM on hNav1.7 (Use); 7.08 µM on hNav1.5 (IonWorks Quattro, Use, read-out: IWQ Use Nav1.5); 74 nM at hNav1.3 (Use).

In the case of `C#CC[C@@H]1NC(=O)[C@@H]2CCCN2C(=O)[C@H]([C@@H](C)CC)NC(=O)[C@@H]2CSSC[C@@H]3NC(=O)[C@H](C(C)C)NC(=O)[C@H](CC(C)C)NC(=O)[C@H](CC(N)=O)NC(=O)[C@@H]4CCCN4C(=O)[C@H](CCCNC(=N)N)NC(=O)[C@H](CSSC[C@H](NC(=O)[C@@H](N)CC(=O)O)C(=O)N[C@@H](CC(C)C)C(=O)NCC(=O)N[C@@H](C)C(=O)N[C@@H](CC(C)C)C(=O)N[C@@H](CCCNC(=N)N)C(=O)N[C@@H](CCCCN)C(=O)N2)NC(=O)[C@H](CSSC[C@@H](C(=O)N[C@@H](CCCCN)C(=O)N[C@@H](Cc2ccc(O)cc2)C(=O)N[C@H](C(=O)N[C@@H](Cc2ccccc2)C(N)=O)C(C)C)NC(=O)[C@H](Cc2c[nH]c4ccccc24)NC(=O)[C@H](CCCNC(=N)N)NC(=O)[C@H](Cc2c[nH]cn2)NC(=O)[C@H](CC(C)C)NC(=O)[C@H](CCCNC(=N)N)NC(=O)[C@H](CO)NC3=O)NC(=O)[C@H](CCCCN)NC(=O)[C@H](CC(=O)O)NC(=O)[C@H](CC(N)=O)NC1=O` [compound 802], the IC50 was 260 nM on hNav1.7 (use-dependent block, hNav1.7); greater than 50 µM at hNav1.5 (setting [1]); 540 nM at hNav1.3 (use-dependent block, hNav1.3).

`CC[C@H](C)[C@@H]1NC(=O)[C@@H]2CSSC[C@@H]3NC(=O)[C@H](C(C)C)NC(=O)[C@H](CC(C)C)NC(=O)[C@H](CC(N)=O)NC(=O)[C@@H]4CCCN4C(=O)[C@H](CCCNC(=N)N)NC(=O)[C@H](CSSC[C@H](NC(=O)[C@@H](N)CC(=O)O)C(=O)N[C@@H](CC(C)C)C(=O)NCC(=O)N[C@@H](Cc4ccccc4)C(=O)N[C@@H](CCSC)C(=O)N[C@@H](CCCNC(=N)N)C(=O)N[C@@H](CCCCN)C(=O)N2)NC(=O)[C@H](CSSC[C@@H](C(=O)N[C@@H](CCCCN)C(=O)N[C@@H](Cc2ccc(O)cc2)C(=O)N[C@H](C(=O)N[C@@H](Cc2ccccc2)C(N)=O)C(C)C)NC(=O)[C@H](Cc2c[nH]c4ccccc24)NC(=O)[C@H](CCCCN)NC(=O)[C@H](Cc2c[nH]cn2)NC(=O)[C@H]([C@@H](C)O)NC(=O)[C@H](CCCNC(=N)N)NC(=O)[C@H](CO)NC3=O)NC(=O)[C@H](CCCCN(C)C)NC(=O)[C@H](CC(=O)O)NC(=O)[C@H](CC(N)=O)NC(=O)[C@H](CC(=O)O)NC(=O)[C@@H]2CCCN2C1=O` [compound 313]: the IC50 on hNav1.7 (Use) was 190 nM; against hNav1.5 (IWQ Use Nav1.5 (μM)) it was 10.1 µM; at hNav1.3 (Use), 130 nM.

For the molecule `CC[C@H](C)[C@@H]1NC(=O)[C@H](CCCNC(=N)N)NC(=O)[C@H](CO)NC(=O)[C@@H]2CSSC[C@@H]3NC(=O)[C@H](CCCCN)NC(=O)[C@H](CCCNC(=N)N)NC(=O)[C@H](CCSC)NC(=O)[C@H](Cc4ccccc4)NC(=O)CNC(=O)[C@H](CC(C)C)NC(=O)[C@@H](NC(=O)[C@@H](N)CC(=O)O)CSSC[C@H](NC(=O)[C@H](CSSC[C@@H](C(=O)N[C@@H](CCCCN)C(=O)N[C@@H](Cc4ccc(O)cc4)C(=O)N[C@H](C(=O)N[C@@H](Cc4ccccc4)C(N)=O)C(C)C)NC(=O)[C@H](Cc4c[nH]c5ccccc45)NC(=O)[C@H](CCCCN)NC(=O)[C@H](Cc4c[nH]cn4)NC1=O)NC(=O)[C@H](CCCCN)NC(=O)[C@H](CC(=O)O)NC(=O)[C@H](CC(N)=O)NC(=O)[C@H](CC(=O)O)NC(=O)[C@@H]1CCCN1C(=O)[C@H]([C@@H](C)CC)NC3=O)C(=O)N[C@@H](CCCNC(=N)N)C(=O)N1CCC[C@H]1C(=O)N[C@@H](CC(N)=O)C(=O)N[C@@H](CC(C)C)C(=O)N[C@@H](C(C)C)C(=O)N2` [compound 348] (H-DCLGFMRKCIPDNDKCCRPNLVCSRIHKWCKYVF-NH2; disulfide 2-17, 9-23, 16-30), the IC50 on hNav1.7 (Table 22, use, […]) was determined as 50 nM; at hNav1.5 (Table 22, IonWorks Quattro, use, […], read-out: IWQ Use Nav1.5) it was 8.15 µM; at hNav1.3 (Table 22, use, […]) it was 30 nM.

For the molecule `CC[C@H](C)[C@@H]1NC(=O)[C@@H]2CSSC[C@@H]3NC(=O)[C@H](C(C)C)NC(=O)[C@H](CC(C)C)NC(=O)[C@H](CC(N)=O)NC(=O)[C@@H]4CCCN4C(=O)[C@H](CCCNC(=N)N)NC(=O)[C@H](CSSC[C@H](NC(=O)[C@@H](N)CC(=O)O)C(=O)N[C@@H](CC(C)C)C(=O)NCC(=O)N[C@@H](C)C(=O)N[C@@H](CCSC)C(=O)N[C@@H](CCCNC(=N)N)C(=O)N[C@@H](CCCCN)C(=O)N2)NC(=O)[C@H](CSSC[C@@H](C(=O)N[C@@H](CCCCN)C(=O)N[C@@H](Cc2ccc(O)cc2)C(=O)N[C@H](C(=O)N[C@@H](Cc2ccccc2)C(N)=O)C(C)C)NC(=O)[C@H](Cc2c[nH]c4ccccc24)NC(=O)[C@H](CCCCN)NC(=O)[C@H](Cc2c[nH]cn2)NC(=O)[C@H]([C@@H](C)O)NC(=O)[C@H](CCCNC(N)=O)NC(=O)[C@H](CO)NC3=O)NC(=O)[C@H](CCCCN)NC(=O)[C@H](CC(=O)O)NC(=O)[C@H](CC(N)=O)NC(=O)[C@H](CC(=O)O)NC(=O)[C@@H]2CCCN2C1=O` [compound 768] (H-DCLGAMRKCIPDNDKCCRPNLVCS[Cit]THKWCKYVF-NH2; disulfide 2-17, 9-23, 16-30), the IC50 at hNav1.7 (use-dependent block, hNav1.7) came out at 1800 nM; at hNav1.5 (setting [1]) it was 23.5 µM; at hNav1.3 (use-dependent block, hNav1.3), 3200 nM.

As for `CC[C@H](C)[C@@H]1NC(=O)[C@@H]2CSSC[C@@H]3NC(=O)[C@H](C(C)C)NC(=O)[C@H](CC(C)C)NC(=O)[C@H](CC(N)=O)NC(=O)[C@@H]4CCCN4C(=O)[C@H](CCCNC(=N)N)NC(=O)[C@H](CSSC[C@H](NC(=O)[C@@H](N)CC(=O)O)C(=O)N[C@@H](CC(C)C)C(=O)NCC(=O)N[C@@H](Cc4ccccc4)C(=O)N[C@@H](CCSC)C(=O)N[C@@H](CCCNC(=N)N)C(=O)N[C@@H](CCCCN)C(=O)N2)NC(=O)[C@H](CSSC[C@@H](C(=O)N[C@@H](CCCCN)C(=O)N[C@@H](Cc2ccc(O)cc2)C(=O)N[C@@H](Cc2c[nH]c4ccccc24)C(=O)N[C@@H](Cc2ccccc2)C(N)=O)NC(=O)[C@H](Cc2c[nH]c4ccccc24)NC(=O)[C@H](CCCCN)NC(=O)[C@H](Cc2c[nH]cn2)NC(=O)[C@H]([C@@H](C)O)NC(=O)[C@H](CCCNC(=N)N)NC(=O)[C@H](CO)NC3=O)NC(=O)[C@H](CCCCN)NC(=O)[C@H](CC(=O)O)NC(=O)[C@H](CC(N)=O)NC(=O)[C@H](CC(=O)O)NC(=O)[C@@H]2CCCN2C1=O` [compound 180] (H-DCLGFMRKCIPDNDKCCRPNLVCSRTHKWCKYWF-NH2; disulfide 2-17, 9-23, 16-30), the IC50 on hNav1.7 (Table 26, use, […]) was found to be 50 nM; at hNav1.5 (Table 26, IonWorks Quattro, use, […], read-out: IWQ Use Nav1.5), 9.06 µM; at hNav1.3 (Table 26, use, […]), 9 nM.
